Assay results reported in ChEMBL document CHEMBL3507680, “University of Dundee, Gates Library screen for HepG2 cell viability”.

Assay: Human HepG2 cell viability assay in 384 well format
Type: toxicity, cell-based
Parameters: dose 125 nL, time 70.5 hour; cytotoxicity at 70.5 h: concentration not given beside the values
Settings: HepG2 cells, read-out: Inhibition

SMILES: COc1cc(N2CC[C@@H]3O[C@@H](c4ccncn4)C[C@H]3C2)ncn1
- cytotoxicity at 70.5 h: 7.96%

SMILES: Cc1nccn1CCN1C(=O)CC2(CCCC2)CC1=O
- cytotoxicity at 70.5 h: -9%

SMILES: Cn1cc(CCNC(=O)NC2CCS(=O)(=O)C2)cn1 (stereo unspecified)
- cytotoxicity at 70.5 h: -1.53%

SMILES: Cc1ccc(CN2C[C@@H](OCc3csc(C)n3)[C@H]3COC[C@H]32)s1
- cytotoxicity at 70.5 h: -10.6%

SMILES: Cn1cc(CCN2CCOC(CNc3cccnn3)C2)cn1 (stereo unspecified)
- cytotoxicity at 70.5 h: 21.9%

SMILES: COCCN1CCN(Cc2ccncc2)c2ncccc2C1
- cytotoxicity at 70.5 h: -11%

SMILES: Cc1ccc(C(=O)NCc2cccnc2-n2cncn2)cc1S(C)(=O)=O
- cytotoxicity at 70.5 h: 17.5%

SMILES: Cc1c[nH]c(C2CCCN(Cc3ccccc3C(=O)O)C2)n1 (stereo unspecified)
- cytotoxicity at 70.5 h: 18.7%

SMILES: CC(C)c1nnc2n1CCN(C(C)c1nnc(-c3cccs3)o1)C2 (stereo unspecified)
- cytotoxicity at 70.5 h: -3.01%

SMILES: CC(C(=O)N(C)C)N1CCc2onc(-c3cccc(F)c3)c2C1 (stereo unspecified)
- cytotoxicity at 70.5 h: -5.12%

SMILES: O=C(c1occc1CN1C(=O)Cc2ccccc21)N1CC(O)C1
- cytotoxicity at 70.5 h: -1.51%

SMILES: COc1c(CNC2CCN(C(=O)C(C)C)CC2)c(C(C)C)nn1C
- cytotoxicity at 70.5 h: 19.1%

SMILES: Cc1cc(C)n(CC2CN(CCOc3cccc(C#N)c3)CCO2)n1 (stereo unspecified)
- cytotoxicity at 70.5 h: 0.061%

SMILES: O=C(c1cscn1)N1CCC2(CCN(Cc3nccs3)C2)CC1
- cytotoxicity at 70.5 h: -12.2%

SMILES: Cc1ccc(C(=O)NCCNCC2CNc3ccnn3C2)cc1 (stereo unspecified)
- cytotoxicity at 70.5 h: -0.325%

SMILES: O=C(c1cnc(-c2ncccn2)s1)N1CCCC1Cn1cccn1 (stereo unspecified)
- cytotoxicity at 70.5 h: -2.29%

SMILES: CN(C)C[C@H]1C[C@H](CO)CN(C(=O)c2cc(S(N)(=O)=O)ccc2F)C1
- cytotoxicity at 70.5 h: -3.55%

SMILES: CC(C)(C)CC(=O)Nc1ccc(S(C)(=O)=O)nc1
- cytotoxicity at 70.5 h: -6.59%

SMILES: O=C(O)c1cc(-c2ccncc2)cc(S(=O)(=O)N2CCSCC2)c1
- cytotoxicity at 70.5 h: -6.71%

SMILES: COc1ccc(C)cc1NC(=O)c1coc(C)n1
- cytotoxicity at 70.5 h: -5.37%

SMILES: Cc1ccc(-c2ccnc(N[C@H]3COC[C@@H]3N3CCCC3)n2)c(C)n1
- cytotoxicity at 70.5 h: -10.9%

SMILES: CCC1c2ccc(C)n2CCN1C(=O)Cn1cnc2sc(C)cc2c1=O (stereo unspecified)
- cytotoxicity at 70.5 h: -5.17%

SMILES: O=C(c1ccc2c(c1)CCO2)N1CCN(c2ncccn2)CC1
- cytotoxicity at 70.5 h: 2.69%

SMILES: Cc1ccc(C)c(-n2cc(CN3CCOCC3)c(-c3ccccc3)n2)c1
- cytotoxicity at 70.5 h: -3.83%

SMILES: COCc1cc(N(Cc2ccsc2)C2CC2)n2ncnc2n1
- cytotoxicity at 70.5 h: -6.87%

SMILES: Cc1nc(C)c(CN(C)C2CCN(C(=O)OC(C)(C)C)CC2)s1
- cytotoxicity at 70.5 h: -7.19%

SMILES: O=C(NC1CCCC1)N1C[C@H]2CN(c3ccccn3)C[C@@]2(C(=O)O)C1
- cytotoxicity at 70.5 h: 6.72%

SMILES: CC(CCn1cccn1)N1CCC(n2cc(C(C)(C)N)nn2)CC1 (stereo unspecified)
- cytotoxicity at 70.5 h: 1.2%

SMILES: CC(C)c1ncc(C(=O)N2CCOCC2CC(=O)c2ccco2)s1 (stereo unspecified)
- cytotoxicity at 70.5 h: -2.34%

SMILES: O=C(N1CCCO1)[C@@]12CCO[C@@H]1CCN(Cc1ccc(F)cc1)C2
- cytotoxicity at 70.5 h: -1.1%

SMILES: CNS(=O)(=O)c1cc(C(=O)N2CCCCCC2CC(C)C)co1 (stereo unspecified)
- cytotoxicity at 70.5 h: -3.95%

SMILES: Cn1cnc2c1C(COCC1CCOCC1)CN(Cc1ccccn1)C2 (stereo unspecified)
- cytotoxicity at 70.5 h: -15.9%

SMILES: CC(C)C(=O)N1CC[C@H]2N(C)CC[C@@]2(C(=O)Nc2ccccc2)CC1
- cytotoxicity at 70.5 h: -10.2%

SMILES: Cc1noc(C)c1CC(=O)NCCc1cccs1
- cytotoxicity at 70.5 h: 7.71%

SMILES: CCC(Nc1cccc(OC)c1)C(=O)NCc1nc(C)cc(=O)[nH]1 (stereo unspecified)
- cytotoxicity at 70.5 h: -5.76%

SMILES: CC(C)(C)OC(=O)NCCC(=O)N(CCC#N)Cc1ccco1
- cytotoxicity at 70.5 h: -0.853%

SMILES: Cc1cc(-n2c(C)cn(CN(C)Cc3ccccc3)c2=O)no1
- cytotoxicity at 70.5 h: -5.85%

SMILES: Cc1cc(NC(=O)C(C)N2CCCN(c3nccs3)CC2)on1 (stereo unspecified)
- cytotoxicity at 70.5 h: -15.9%

SMILES: Cc1cccc(N2CCOCC3(C2)CN(c2ccccc2)C(=O)CO3)n1 (stereo unspecified)
- cytotoxicity at 70.5 h: -4.51%

SMILES: CCC(C)N(Cc1cnc(NCC(=O)O)nc1)Cc1ccsc1 (stereo unspecified)
- cytotoxicity at 70.5 h: -7.35%

SMILES: CN1CCC(N2CCC(CN(Cc3ccncc3)C3CCC3)CC2)CC1
- cytotoxicity at 70.5 h: -4.29%

SMILES: Cc1cc(N2CCN(C(=O)c3cnn(C(C)C)c3)CC2)cc(C)n1
- cytotoxicity at 70.5 h: 7.11%

SMILES: CCc1cc(NC2CCN(Cc3ccccc3F)CC2)n2nccc2n1
- cytotoxicity at 70.5 h: -16.6%

SMILES: CCN1CCc2c(CNC(=O)c3nccn3C)cncc2C1
- cytotoxicity at 70.5 h: -10.7%

SMILES: Cc1nc2ncnn2c2ccn(-c3cccnc3O)c(=O)c12
- cytotoxicity at 70.5 h: -15.9%

SMILES: COCCn1ccc2cc(C(=O)N3CCN(S(C)(=O)=O)CC3)ccc21
- cytotoxicity at 70.5 h: -5.85%

SMILES: COc1ccccc1OCc1cc(C(=O)N2CCC(NC(C)=O)C2)n[nH]1 (stereo unspecified)
- cytotoxicity at 70.5 h: 2.49%

SMILES: CC(C(=O)Nc1sccc1C(N)=O)N(C)CCOc1ccccc1 (stereo unspecified)
- cytotoxicity at 70.5 h: -20.6%

SMILES: CN1CCN(C(=O)c2cn(Cc3ccccc3)c3ncccc23)CC1
- cytotoxicity at 70.5 h: -3.43%

SMILES: O=c1[nH]c2c(c(=O)n1C1CCCCC1)CCC2NCCc1ccccc1 (stereo unspecified)
- cytotoxicity at 70.5 h: -17.4%

SMILES: CC(C)c1nccc([C@H]2C[C@@H]3CCN(Cc4ccco4)C[C@H]3O2)n1
- cytotoxicity at 70.5 h: -9.27%

SMILES: CCc1ncc(C(=O)N2CCC(Nc3ccc(C)nn3)CC2)s1
- cytotoxicity at 70.5 h: -8.02%

SMILES: O=C(CC1CCN(CCc2ccccc2)CC1)NC1CCOCC1
- cytotoxicity at 70.5 h: -1.43%

SMILES: CCn1c(N)nc2cc(C(=O)NCc3cccc(C)c3C)cnc21
- cytotoxicity at 70.5 h: 17.1%

SMILES: Cc1ccc(-c2cc(-c3nc(CN4CCN(C)CC4)no3)[nH]n2)s1
- cytotoxicity at 70.5 h: -10.5%

SMILES: CC(c1ccc(Br)cc1)N1CCCN(C(N)=O)CC1 (stereo unspecified)
- cytotoxicity at 70.5 h: -5.26%
